Reference: patent publication US20250333745A1, “METHODS AND COMPOSITIONS FOR TREATMENT OF POLYCYSTIC KIDNEY DISEASE” (Regulus Therapeutics Inc., priority 2016, published 2025)

How the values were obtained:
miR-17 targets = test: De-repression of miR-17 targets in kidney cell types (PD Signature Score); type: cell-based, mouse
Experimental: The ability of RG4326 to de-repress miR-17 targets was also evaluated in additional kidney cell types, derived from the kidneys of both normal and PKD mice. Cells were treated with 30 nM of RG4326 or control oligonucleotide RG5124. After a 24-hour transfection period, cells were collected and RNA was extracted. The mRNA levels of 18 genes targeted by miR-17 were measured, and averaged to provide a pharmacodynamic signature score (PD Signature Score), represented as Log2 fold-change (Log2FC) relative to mock-transfection. […] “P<0.05” indicates a p-value of less than 0.05, as calculated by one-way ANOVA. “NS” indicates a change that is not statistically significant.

[1] = Pharmacokinetic profile after single 30 mg/kg subcutaneous dose in wild-type mice; type: in vivo, mouse; conditions: single s.c. dose 30 mg/kg
Experimental: A full pharmacokinetic profile for selected compounds that have passed multiple screening criteria was obtained in C57BL6 mice. In one study, mice are administered a single subcutaneous injection of anti-miR-17 compound at 30 mg/kg. In another study, mice are administered three subcutaneous injections of anti-miR-17 compound at 39 mg/kg, over a two-month period. In each study, liver and kidney samples are collected at 1 hour, 4 hours, 8 hours, 1 day, 4 days, 7 days, 14 days, 28 days, and 56 days following injections.
(§1) Pharmacokinetic behavior was assessed by administering a single subcutaneous 30 mg/kg dose of RG4326 or tool anti-miR-17 compound to wild-type mice. At one hour, four hours, eight hours, one day, seven days, 14 days, 28 days and 56 days following the single injection, mice were sacrificed and the mean concentration of anti-miR compound in kidney and liver tissue was measured (ug/g) as described above. The area-under-curve (AUC) was calculated for kidney and liver tissue using the formula ug*h/g, where ug is the amount of oligonucleotide in the tissue, h is the timepoint of tissue collection in hours, and g is the weight of the tissue. The ratio of kidney AUC to liver AUC was determined. Kidney tissue was also processed to the miPSA, to determine target engagement for each compound in this study. PSA AUC was calculated using the formula Log2FC*h, where Log2FC is the displacement value, h is the timepoint of tissue collection in hours. Potency in the kidney at day 7 was calculated using the formula Log2FC+g/ug where Log2FC is the displacement value as determined by the miPSA, g is the weight of the kidney tissue, and ug is the amount of anti-miR in the kidney tissue at day seven.

miR-17 = test: microRNA polysome shift assay (miPSA), kidney target engagement; type: in vivo, mouse; set-up: miPSA Score Wild Type Mice / miPSA Score PKD Mice / miPSA displacement score (mean): scale not given here; conditions: for miPSA Kidney AUC (8 hours to 7 days) / Potency Kidney D7: wild-type mice, single s.c. dose 30 mg/kg; for Potency Kidney D7: day 7
Experimental: (§2) In vivo potency was evaluated using the microRNA polysome shift assay (miPSA). This assay was used to determine the extent to which compounds directly engage the miR-17 target in the kidney in normal and PKD mice. The miPSA relies on the principle that active miRNAs bind to their mRNA targets in translationally active high molecular weight (HMW) polysomes, whereas the inhibited miRNAs reside in the low MW (LMW) polysomes. Treatment with anti-miR results in a shift of the microRNA from HMW polysomes to LMW polysomes. Thus, the miPSA provides a direct measurement of microRNA target engagement by a complementary anti-miR (Androsavich et al., Nucleic Acids Research, 2015, 44: e13).
The miPSA was used to assess the potency of each compound, measured by the displacement score, in wild type and JCK mice. Tissue accumulation of anti-miR-17 compound was measured by extraction of compound using liquid-liquid extraction (LLE) and/or solid-phase extraction (SPE), followed by analysis of the identity and concentration of compound using ion-pairing-reversed-phase high performance liquid chromatography coupled with time-of-flight mass spectrometry (IP—RP-HPLC-TOF).
Wild type mice were administered a single dose of 3 mg/kg for the miPSA analysis, and a single dose of 30 mg/kg for the tissue accumulation analysis. JCK mice were administered a single dose of 30 mg/kg for both the miPSA and tissue accumulation analyses. Kidney tissue was collected seven days following the administration of anti-miR-17 compound. […] A higher kidney-to-liver ratio is generally preferred for a disease where the primary site of action is the kidney.
as §2, with “The” for “In vivo potency was evaluated using the”, “(miPSA),” for “(miPSA). This assay”, “identify” for “determine the extent to which”, “compounds that” for “compounds”, “engage” for “engage the”, “miR-17” for “miR-17 target”
For this experiment, the PKD model selected was the JCK model, a mouse model of slowly progressing renal cystic disease associated with the same gene that causes human nephronophthisis type 9. Renal cysts in this mouse develop in multiple regions of the nephron.
C57BL6 mice were treated with a single, subcutaneous dose of 0.3, 3, and 30 mg/kg of RG4326 or tool anti-miR-17 (described in Example 1). JCK mice were treated with a single, subcutaneous dose of 3, 30, and 100 mg/kg of RG4326 or tool anti-miR-17. PBS treatment was used as an additional control. At seven days post-treatment, mice were sacrificed, and kidney tissue was isolated for the miPSA. […] The displacement scores following treatment with RG4326 were greater than the displacement scores following treatment with the tool anti-miR-17 compound. The data for wild-type mice and JCK mice are also shown in FIG. 3A and FIG. 3B, respectively.
as §1, with “PSA AUC was calculated using the formula Log2FC*h, where Log2FC is the displacement value, h is the timepoint of tissue collection in hours. Potency in the kidney at day 7 was calculated using the formula Log2FC+g/ug where Log2FC is the displacement value as determined by the miPSA, g is the weight of the kidney tissue, and ug is the amount of anti-miR in the kidney tissue at day seven.” left out

[2] = DBA-PKD, Collecting Ducts, PKD kidney
[3] = DBA-WT, Collecting Ducts, Normal kidney
[4] = IMCD3, Collecting Ducts, Normal kidney
[5] = LTL-PKD, Proximal Tubules, PKD kidney
[6] = LTL-WT, Proximal Tubules, Normal kidney
[7] = M1, Collecting Ducts, Normal kidney
[8] = MDCT, Distal Tubules, Normal kidney
[9] = JCK mice, single subcutaneous 3 mg/kg, kidney, seven days
[10] = JCK mice, single subcutaneous 30 mg/kg, kidney, seven days
[11] = JCK mice, single subcutaneous 100 mg/kg, kidney, seven days
[12] = Normal (C57BL6) mice, single subcutaneous 0.3 mg/kg, kidney, seven days
[13] = Normal (C57BL6) mice, single subcutaneous 3 mg/kg, kidney, seven days
[14] = Normal (C57BL6) mice, single subcutaneous 30 mg/kg, kidney, seven days

Compound | PD-Signature Score (Log2FC @ 30 nM) (miR-17 targets; [2]) | PD-Signature Score (Log2FC @ 30 nM) (miR-17 targets; [3]) | PD-Signature Score (Log2FC @ 30 nM) (miR-17 targets; [4]) | PD-Signature Score (Log2FC @ 30 nM) (miR-17 targets; [5]) | PD-Signature Score (Log2FC @ 30 nM) (miR-17 targets; [6]) | PD-Signature Score (Log2FC @ 30 nM) (miR-17 targets; [7]) | PD-Signature Score (Log2FC @ 30 nM) (miR-17 targets; [8]) | KAUC/LAUC Ratio [1] | Kidney AUC (one hour to 56 days) [1] | Liver AUC (one hour to 56 days) [1] | miPSA Score PKD Mice (miR-17; JCK mice, single dose 30 mg/kg, kidney, seven days) | miPSA displacement score (mean) (miR-17; [9]) | miPSA displacement score (mean) (miR-17; [10]) | miPSA displacement score (mean) (miR-17; [11]) | miPSA displacement score (mean) (miR-17; [12]) | miPSA displacement score (mean) (miR-17; [13]) | miPSA displacement score (mean) (miR-17; [14]) | miPSA Score Wild Type Mice (miR-17; wild type mice, single dose 3 mg/kg, kidney, seven days) | miPSA Kidney AUC (8 hours to 7 days) (miR-17) | Potency Kidney D7 (miR-17)
COC1C(OP(=O)(S)OC[C@H]2O[C@@H](n3cnc4c(N)ncnc43)C(F)C2OP(=O)(S)OC[C@H]2O[C@@H](n3ccc(N)nc3=O)C(F)C2OP(=O)(S)OC[C@H]2O[C@@H](n3ccc(=O)[nH]c3=O)C(F)C2OP(=O)(S)OC[C@H]2O[C@@H](n3ccc(=O)[nH]c3=O)C(OC)C2OP(=O)(S)OC[C@]23O[C@@H](n4ccc(=O)[nH]c4=O)C(O[C@H]2C)C3OP(=O)(S)OC[C@]23O[C@@H](n4cnc5c(=O)[nH]c(N)nc54)C(O[C@H]2C)C3O)[C@@H](COP(=O)(S)OC2C3O[C@@H](C)[C@]2(COP(=O)(S)OC2C4O[C@@H](C)[C@]2(CO)O[C@H]4n2cnc4c(N)ncnc42)O[C@H]3n2cnc3c(=O)[nH]c(N)nc32)O[C@H]1n1ccc(N)nc1=O (stereo in doubt) [RG4326, ASGSCMAFCFUFUMUSGS] | 0.52 ± 0.06; p < 0.05 Log2FC | 0.40 ± 0.09; p < 0.05 Log2FC | 0.57 ± 0.06; p < 0.05 Log2FC | 0.39 ± 0.01; p < 0.05 Log2FC | 0.35 ± 0.02; p < 0.05 Log2FC | 0.18 ± 0.18; p < 0.05 Log2FC | 0.10 ± 0.01; p < 0.05 Log2FC | 4.4 | 5347 µg·h/g | 1206 µg·h/g | 2.65 | 1.63 | 2.58 | 2.73 | 2.29 | 2.91 | 3.19 | 2.63 | 463 Log2FC * h | 0.351 Log2FC * g/ug
5′-CTGCACTGTAAGCACTTTG-3′ (all phosphorothioate, sugars by position and methylation of C not given here; DNA, 2'-MOE and S-cEt sugars) [Tool anti-miR-17, reference compound] |  |  |  |  |  |  |  | 1.0 | 20711 µg·h/g | 20275 µg·h/g |  | 0.97 | 1.67 | 2.08 | 1.51 | 2.05 | 2.77 |  | 296 Log2FC * h | 0.047 Log2FC * g/ug
ASCSAMAFUFGFCMASCS [RG5124, reference compound] | −0.07 ± 0.02; ns Log2FC | 0.10 ± 0.05; ns Log2FC | −0.03 ± 0.05; ns Log2FC | −0.03 ± 0.04; ns Log2FC | −0.04 ± 0.02; ns Log2FC | −0.08 ± 0.02; ns Log2FC | 0.03 ± 0.01; ns Log2FC |  |  |  |  |  |  |  |  |  |  |  |  | 
